“Also recorded” adds a separate entry of the source.
Key:
[1] = test system: Ras effectors ERK and AKT in DLD-1 cells; experiment: Western blot of downstream RAS signaling (P-ERK, P-AKT, P-MEK) in serum-starved DLD-1 cells; assay type: cell-based, human; conditions: 100 μM; for activation of AKT and ERK / relative capacity to activate Ras effectors ERK and AKT among the compounds: DLD-1 serum-starved cells, 3 hours
Description: DLD-1 (KRASWT/G13D) (clone V15, #HD PAR-086) colorectal adenocarcinoma cell line and DLD-1 knockout of mutant KRAS allele, DLD-1 KO (KRASWT/−) (clone DWT7, #HD105-002), were obtained from Horizon Discovery Ltd. (Cambridge, UK). hTERT-RPE (KRASWT/WT) immortalized retinal pigment epithelial human cell line was obtained from the […] (ATCC). DLD-1 KO cells stably expressing HA-KRAS G12V were previously generated in our laboratory (Cabot et al., 2021). All cells were grown in DMEM-HAM s F12 (1:1) supplemented with 10% foetal bovine serum (Biological Industries, Israel), penicillin, streptomycin, and nonessential amino acids. Cells were tested once per month for mycoplasma contamination.
Cells were seeded in a media containing 10% FBS for 24 hours and then they were serum starved (0.1% FBS) for the next 24 hours. Afterwards, they were incubated with the different compounds during the times specified in each figure. When indicated, also in order to activate downstream KRAS cell signalling, treatment for 10 minutes with EGF (50 ng/mL) (Sigma-Aldrich) was performed.
Proteins were resolved by SDS-PAGE, transferred onto PVDF membranes (Immobilon-P, Millipore) and Western blot was performed as previously described (Cabot et al, Oncogene 2021). The following primary antibodies were used: anti-c-RAF (BD Transduction 610151, 1:500); anti-phospho-c-RAF S338 (Cell Signaling 9427, 1:500); anti-AKT (Cell Signaling 9272, 1:1000); anti-phospho-AKT T308 (Cell Signaling 4056, 1:1000); anti-phospho-MEK1/2 S221 (Cell Signalling […]); anti-p44/42 MAPK (ERK1/2) (Cell Signaling 9102, 1:2000); anti-phospho-p44/42 MAPK(ERK1/2) T202/Y204 (Cell Signaling 4370, 1:2000); anti-HA (Sigma-Aldrich H6908, 1:1000); anti-cleaved-caspase-3 (Asp175) (Cell Signaling 9661, 1:1000); HRP-coupled secondary antibodies used: goat anti-rabbit (BioRad 170-6515, 1:3000) or goat anti-mouse (BioRad 170 6516, 1:3000).
For analysis of RAS signalling, cells were lysed in a buffer containing 67 mM Tris-HCl pH 6.8 and 2% SDS and then the samples were heated at 97° C. for 15 minutes. Protein concentration of the lysates was assessed using the Lowry method. An aliquot of […] of protein per sample was loaded onto the gels.
We first analyzed the effect of P14 on the activation of downstream RAS signaling pathways (RAF/MEK/ERK and PI3K/AKT) in DLD-1 cells (CRC cells carrying one oncogenic KRAS allele). To this end, DLD-1 serum-starved cells (0.1% FCS) were treated with P14 (100 μM) at different times, and activation of AKT and ERK was evaluated by Western blot. […] As a 3-hour treatment was associated with major effects, we chose this duration for the subsequent experiments with the other compounds. Next, DLD-1 serum-starved cells were treated with P14A-P14C at 100 μM for 3 hours and activation of AKT and ERK was assessed as above. […] The kinetics of RAS downstream signaling was analyzed in P14B-treated cells compared to 10% FBS serum.

Panc-1 cells = experiment: Cell Titre Glo viability assay, Panc-1; assay type: cell-based; conditions: Panc-1 cells (KRAS mutant G12D), after five days of treatment
Description: In the next study, compounds were tested against cancer cells: pancreatic cancer cells (Panc-1), ovarian cancer cells (SW626) and uterine sarcoma cells (Mes-sa). The data generated using Cell Titre Glo® assays under standard conditions where the cells are grown in 384 well plates, then placed under continuous pressure of treatment for the relevant time period before being halted and assayed. The data collected is then plotted for analysis.
FIG. […]

| Structure (SMILES) | activation of AKT and ERK [1] | relative capacity to activate Ras effectors ERK and AKT among the compounds [1] | P-ERK and P-AKT levels, time course ([1]; DLD-1 serum-starved cells (0.1% FCS), 3 and 6 hours) | IC50 (Panc-1 cells) | response among the molecules tested (Panc-1 cells) |
| --- | --- | --- | --- | --- | --- |
| Cc1n[nH]c(O)c1C(c1ccc(F)cc1)c1c(C)n[nH]c1O [Example P14A] | increase AKT and/or ERK signalling | highest activation of both Ras effectors | – | – | – |
| Cc1n[nH]c(O)c1C(c1ccc2c(c1)OCO2)c1c(C)n[nH]c1O [Example P14C] | activated AKT and ERK kinases; also recorded: increase AKT and/or ERK signalling | – | – | – | – |
| Cc1n[nH]c(O)c1C(c1ccccc1OCc1ccc(Cl)cc1)c1c(C)n[nH]c1O [Example P14] | activated AKT and ERK kinases; also recorded: increase AKT and/or ERK signalling | most efficient | significantly increased P-ERK and P-AKT | – | – |
| COc1ccc(C(c2c(C)n[nH]c2O)c2c(C)n[nH]c2O)cc1OCCc1ccc(Cl)cc1 [P14(J)SD] | – | – | – | < 20 µM | best response |
